Here are results for 66 molecules from PubChem BioAssay AID651975 (The Scripps Research Institute Molecular Screening Center, 2013).

Molecules are shown by their SMILES. The source made the active and inactive calls. The rule behind the calls is not given here.

The assay deals with StAR promoter luciferase reporter cells, luminescence inhibition. Description: nonselective StAR promoter luciferase inhibitors – cell-based, luminescence, dose response, counter-screen for LRH-1 inverse agonist project, late-stage follow-up (AID 651975). For orientation: The purpose of a counterscreen is to sort out artefacts and off-target activity.

`O=C(COC(=O)CCN1C(=O)C2CC=CCC2C1=O)NCCc1ccc(F)cc1` (stereo unspecified): the IC50 – broadly, the concentration that gives 50% inhibition – is > 35.9 µM (inactive).

With `CCCc1cc(=O)oc2cc(OCC(=O)NCc3ccccn3)ccc12`, the IC50 is > 35.9 µM (inactive).

Take `COc1ccc(NC(=O)COC(=O)c2c(-c3ccccc3)noc2C)cc1`: the IC50 is 33.9 µM (inactive). For the molecule `O=C1CCCN2N=C(SCC(=O)Nc3ccc(Br)cc3)SC2=N1`, the IC50 was > 35.9 µM (inactive). `COc1ccc(CCNC(=O)CSc2nc3[nH]c(=O)cc(O)c3s2)cc1`: the IC50 was > 35.9 µM (inactive). Consider `Cc1cccc(NC(=O)COC(=O)Cc2cccs2)c1C`, for which the IC50 was > 35.9 µM (inactive). As for `CC(=O)c1ccc(OC(C)C(=O)OCC(=O)NCCc2ccccc2)cc1` (stereo unspecified), the IC50 is > 35.9 µM (inactive). Regarding `O=C(Nc1ccc(Br)cn1)c1ccc([N+](=O)[O-])o1`, the IC50 is > 35.9 µM (inactive). With `Cc1nn(CC(=O)Nc2ccc3c(c2)OCCO3)c(C)c1[N+](=O)[O-]`, the IC50 is > 35.9 µM (inactive). The result for `COC(=O)c1ccc(NC(=O)CN2CCN(c3ccc(Cl)cc3)CC2)cc1` reads > 35.9 µM (inactive); that for `Cc1cc(=O)oc2c(C)c(OCC(=O)NC3CC(C)(C)NC(C)(C)C3)ccc12`, > 35.9 µM (inactive); that for `CCc1cc(=O)[nH]c(SCC(=O)Nc2ccc3c(c2)OCCO3)n1`, > 35.9 µM (inactive). Consider `CCCc1cc(=O)oc2cc(OCC(=O)NCCc3ccc(S(N)(=O)=O)cc3)ccc12`, for which the IC50 was > 35.9 µM (inactive).

As to `COc1ccc(NC(=O)CSc2ccc3c(c2)OCCO3)cc1`, the IC50 is > 35.9 µM (inactive). The result for `COc1ccc(C2(C)NC(=O)N(CC(=O)NCCC3=CCCCC3)C2=O)cc1OC` (stereo unspecified) reads > 35.9 µM (inactive); that for `COc1ccc(CCNC(=O)COC(=O)c2cccn2C)cc1`, > 35.9 µM (inactive); that for `CCCc1nnc(SCC(=O)Nc2ccc(C(=O)OCC)cc2)o1`, > 35.9 µM (inactive). `CCOc1ccc(NC(=O)COC(=O)COc2cccc3c2OC(C)(C)C3)cc1`: the IC50 was > 35.9 µM (inactive).

`Cc1ccc(NC(=O)COC(=O)C(NS(=O)(=O)c2ccc(Cl)cc2)C(C)O)cc1C` (stereo unspecified): the IC50 is > 35.9 µM (inactive). Consider `O=C(COc1ccc2c3c(c(=O)oc2c1)CCCC3)NCc1ccccn1`, for which the IC50 was > 35.9 µM (inactive). The result for `CCCN(CC(=O)Nc1ccc(C(C)=O)cc1)CC(=O)Nc1ccccc1C` reads > 35.9 µM (inactive); that for `Cc1cc(Br)ccc1NC(=O)CN1C(=O)C2CC=CCC2C1=O` (stereo unspecified), 27.8 µM (inactive). Consider `COc1ccc(CCNC(=O)CSc2nn3c(=O)c(C)nnc3s2)cc1OC`, for which the IC50 is > 35.9 µM (inactive). The result for `O=C(Nc1ccc(S(=O)(=O)N2CCOCC2)cc1)c1cccc([N+](=O)[O-])c1` reads > 35.9 µM (inactive); that for `Cc1cc(C)c2nc(NC(=O)c3ccc([N+](=O)[O-])o3)sc2c1`, > 35.9 µM (inactive); that for `CCCc1cc(=O)oc2cc(C)cc(OCC(=O)NC3CC3)c12`, > 35.9 µM (inactive).

`O=C(CSc1nnc(CNC(=O)c2ccccc2F)o1)Nc1ccc2c(c1)OCCO2`: the IC50 was > 35.9 µM (inactive).

In the case of `COC(=O)c1ccc(NC(=O)CSc2nc3ncccc3[nH]2)cc1`, the IC50 is > 35.9 µM (inactive). The result for `CC(=O)Nc1ccc(NC(=O)CSc2ccc(-c3ccco3)nn2)cc1` reads > 35.9 µM (inactive); that for `COc1ccc(NC(=O)CN2C(=O)NC3(CCCC3)C2=O)cc1`, > 35.9 µM (inactive). The result for `O=C(Nc1ccccc1)c1oc2ccccc2c1NC(=O)C1CC1` reads > 35.9 µM (inactive); that for `CC(=O)Nc1ncc(Cc2cc(Cl)ccc2Cl)s1`, > 35.9 µM (inactive); that for `COc1ccc(CCNC(=O)CSc2ccc(NC(C)=O)cc2)cc1OC`, > 35.9 µM (inactive). As for `COc1ccc(NC(=O)CSc2nnc3ccc(-c4cccnc4)nn23)cc1OC`, the IC50 was > 35.9 µM (inactive). As for `Cc1cc(Br)ccc1NC(=O)CN1C(=O)CCC1=O`, the IC50 was > 35.9 µM (inactive). As to `NC(=O)C1CCN(C(=O)COc2ccc3c4c(c(=O)oc3c2)CCCC4)CC1`, the IC50 is > 35.9 µM (inactive). The result for `COC(=O)c1ccc(CNC(=O)COC(=O)c2cc(Cl)nc(Cl)c2)cc1` reads > 35.9 µM (inactive); that for `CCOc1ccc(NC(=O)COC(=O)c2ccc3c(c2)OCCO3)cc1`, > 35.9 µM (inactive). As to `O=C(CSc1nc(=O)n2cc(Cl)ccc2n1)Nc1ccc2c(c1)OCCO2`, the IC50 was > 35.9 µM (inactive). The result for `O=C(COC(=O)c1ccc(Br)cc1)Nc1ccccc1Br` reads > 35.9 µM (inactive); that for `CC(=O)c1ccc(NC(=O)C(C)O/N=C(\N)c2ccccc2)cc1` (stereo unspecified), > 35.9 µM (inactive); that for `N#CCSc1ccccc1NC(=O)CN1C(=O)C2CC=CCC2C1=O` (stereo unspecified), > 35.9 µM (inactive).

For `CCc1cc(=O)oc2c(C)c(OCC(=O)NCCN3CCOCC3)ccc12`, the IC50 is > 35.9 µM (inactive).

In the case of `Cc1ccc(NC(=O)CSc2nc3[nH]c(=O)cc(O)c3s2)c(Br)c1`, the IC50 is > 35.9 µM (inactive). The result for `COc1ccc(CCNC(=O)COC(=O)C23CC4CC(CC(C4)C2)C3)cc1` reads > 35.9 µM (inactive). `CCCc1cc(=O)oc2c(C)c(OCC(=O)NC3CC(C)(C)NC(C)(C)C3)ccc12`: the IC50 was > 35.9 µM (inactive).

For `Cc1ccc2cccc(OCC(=O)NCCC3=CCCCC3)c2n1`, the IC50 was > 35.9 µM (inactive). As for `CCc1c(C)nc(SCC(=O)Nc2ccc3c(c2)OCCO3)[nH]c1=O`, the IC50 is > 35.9 µM (inactive). For the molecule `COC(=O)c1ccc(NC(=O)CSc2nncn2-c2cccnc2)cc1`, the IC50 was > 35.9 µM (inactive). Turning to `O=c1[nH]c(Nc2ccc3c(c2)OCCO3)nnc1Cc1ccccc1`, the IC50 was > 35.9 µM (inactive). Turning to `O=C(NCc1ccco1)c1nn(-c2ccccc2)c(=O)c2ccccc12`, the IC50 is > 35.9 µM (inactive). For `O=C(Nc1nc2c(Cl)cccc2s1)c1ccc([N+](=O)[O-])o1`, the IC50 was > 35.9 µM (inactive). `Cc1cc(OCC(=O)Nc2nccs2)c2c(C)cc(=O)oc2c1`: the IC50 is > 35.9 µM (inactive). Consider `O=C(COc1ccc2c3c(c(=O)oc2c1)CCC3)NCc1ccncc1`, for which the IC50 was > 35.9 µM (inactive). Consider `COc1ccc(NC(=O)COC(=O)c2cc(S(=O)(=O)N3CCCC3)ccc2O)cc1`, for which the IC50 is > 35.9 µM (inactive). Take `O=C(CN1C(=O)CCC1=O)Nc1ccc(Br)cc1`: the IC50 is > 35.9 µM (inactive). The result for `COc1ccc(-n2c(N)c(C(=O)NCc3cccnc3)sc2=S)cc1` reads > 35.9 µM (inactive); that for `COc1ccc(CC(NC(C)=O)C(=O)NC2CCN(c3nnnn3-c3ccccc3)CC2)cc1` (stereo unspecified), > 35.9 µM (inactive). `COC(=O)c1ccc(NC(=O)COc2cccc(-n3cnnn3)c2)cc1`: the IC50 is > 35.9 µM (inactive). For `Cc1ccc(NC(=O)COC(=O)C(NS(=O)(=O)c2ccc(Cl)cc2)C(C)O)c(Br)c1` (stereo unspecified), the IC50 was > 35.9 µM (inactive). On to `COc1ccc(CCNC(=O)COC(=O)c2cc(Cl)nc(Cl)c2)cc1`, for which the IC50 was > 35.9 µM (inactive).

Consider `Cc1ccn2c(=O)nc(SCC(=O)Nc3ccc4c(c3)OCCO4)nc2c1`, for which the IC50 was > 35.9 µM (inactive).

`Cc1cccc(NC(=O)COC(=O)CN2C(=O)c3ccccc3C2=O)c1C`: the IC50 is > 35.9 µM (inactive). As for `COCCn1c(C)cc(/C=C(\C#N)C(=O)OCC(=O)Nc2ccc(S(N)(=O)=O)cc2)c1C`, the IC50 was > 35.9 µM (inactive). With `CCOc1ccc(NC(=O)COC(=O)CC2CCCCC2)cc1`, the IC50 is > 35.9 µM (inactive). For `CC1SC(C)C(=O)N(CC(=O)Nc2ccc3c(c2)OCO3)C1=O` (stereo unspecified), the IC50 was > 35.9 µM (inactive).
